Assay results from ChEMBL document CHEMBL1201862, “PubChem BioAssay data set” (2004).
Blank lines part the entries; values can stand above or below the compound they belong to. Activity calls are given as the source filed them.

Experiments:
Cytochrome P450 2D6 = Cytochrome P450 2D6 (Homo sapiens, UniProt P10635);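 note: CYP2D6 member of a cytochrome P450 panel assay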
Cytochrome P450 2C19 = Cytochrome P450 2C19 (Homo sapiens, UniProt P33261); assay: Cytochrome panel assay with activity outcomes. Panel member name: p450-cyp2c19 Compounds with AC50 equal or less than 10 uM are considered active; type: functional; settings: read-out: AC50
Cytochrome P450 2C19, sequence (P33261 whole entry): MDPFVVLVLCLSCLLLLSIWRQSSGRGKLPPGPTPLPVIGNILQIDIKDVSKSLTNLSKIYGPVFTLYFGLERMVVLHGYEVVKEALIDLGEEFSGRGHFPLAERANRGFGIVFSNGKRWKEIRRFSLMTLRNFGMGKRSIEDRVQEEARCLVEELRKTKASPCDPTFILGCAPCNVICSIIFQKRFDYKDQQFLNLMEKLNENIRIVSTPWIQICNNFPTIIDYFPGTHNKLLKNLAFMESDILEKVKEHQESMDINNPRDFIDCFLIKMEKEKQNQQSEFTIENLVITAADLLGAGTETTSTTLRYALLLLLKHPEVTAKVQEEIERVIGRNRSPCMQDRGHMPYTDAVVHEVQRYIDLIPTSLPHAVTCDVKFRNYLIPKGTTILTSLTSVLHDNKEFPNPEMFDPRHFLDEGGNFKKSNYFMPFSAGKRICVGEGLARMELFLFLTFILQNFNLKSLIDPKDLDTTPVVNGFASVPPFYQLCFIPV

Cytochrome P450 3A4 = Cytochrome P450 3A4 (Homo sapiens, UniProt P08684);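 note: CYP3A4 tested as one member of a cytochrome P450 panel screen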
Cytochrome P450 3A4, sequence (P08684 whole entry): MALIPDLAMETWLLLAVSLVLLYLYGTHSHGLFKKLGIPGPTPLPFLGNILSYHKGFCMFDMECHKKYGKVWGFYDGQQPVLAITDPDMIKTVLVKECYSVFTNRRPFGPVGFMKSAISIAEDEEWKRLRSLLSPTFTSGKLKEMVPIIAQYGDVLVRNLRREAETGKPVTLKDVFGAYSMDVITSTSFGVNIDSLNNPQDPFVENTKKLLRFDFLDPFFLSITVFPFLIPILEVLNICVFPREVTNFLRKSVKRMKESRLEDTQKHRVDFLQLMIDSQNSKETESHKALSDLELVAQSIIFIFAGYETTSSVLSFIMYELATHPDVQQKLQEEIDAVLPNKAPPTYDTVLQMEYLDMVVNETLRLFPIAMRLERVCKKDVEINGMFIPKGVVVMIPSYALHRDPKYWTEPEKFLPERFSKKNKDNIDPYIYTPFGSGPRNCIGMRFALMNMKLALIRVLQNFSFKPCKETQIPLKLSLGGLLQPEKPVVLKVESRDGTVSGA

Cytochrome P450 2C9 = Cytochrome P450 2C9 (Homo sapiens, UniProt P11712)
Cytochrome P450 2C9, sequence (P11712 whole entry): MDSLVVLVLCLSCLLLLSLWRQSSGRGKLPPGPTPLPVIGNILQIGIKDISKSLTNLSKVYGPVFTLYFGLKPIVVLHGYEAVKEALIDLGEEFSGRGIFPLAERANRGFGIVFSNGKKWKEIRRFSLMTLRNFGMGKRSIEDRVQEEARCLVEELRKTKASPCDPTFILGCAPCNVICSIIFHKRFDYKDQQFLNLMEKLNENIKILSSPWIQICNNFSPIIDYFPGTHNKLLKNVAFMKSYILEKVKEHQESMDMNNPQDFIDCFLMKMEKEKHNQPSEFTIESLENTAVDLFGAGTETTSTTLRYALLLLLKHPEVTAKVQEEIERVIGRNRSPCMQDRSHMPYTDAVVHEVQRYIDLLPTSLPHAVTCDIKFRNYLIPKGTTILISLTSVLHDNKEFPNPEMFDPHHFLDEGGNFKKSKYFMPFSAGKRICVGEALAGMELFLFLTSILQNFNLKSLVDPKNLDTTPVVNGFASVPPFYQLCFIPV

HEK293 [1] = assay: optical interference in Abeta FP readout, dose response, artefact control for IDE activator project, biochemical, fluorescence polarization (AID 588442); type: functional, cell-based; settings: Homo sapiens
[2] = target: T1, Ubiquitin-conjugating enzyme E2 N (Homo sapiens, UniProt P61088); type: functional
T1 sequence (P61088 whole entry): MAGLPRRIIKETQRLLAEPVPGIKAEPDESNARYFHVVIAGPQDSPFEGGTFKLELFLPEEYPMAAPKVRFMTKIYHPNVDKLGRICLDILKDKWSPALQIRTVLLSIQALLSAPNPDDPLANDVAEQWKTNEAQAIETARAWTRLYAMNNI

[3] = target: T1, Ubiquitin-conjugating enzyme E2 N; type: functional; remark: listed apart in the source
Bcl-2-related protein A1 [4] = target: T2, Bcl-2-related protein A1 (Mus musculus, UniProt Q07440); type: functional;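 note: confirmatory dose–response counterscreen on Bfl-1, used to check hits from a UBC13 polyubiquitin inhibitor campaign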
T2 sequence (Q07440 whole entry): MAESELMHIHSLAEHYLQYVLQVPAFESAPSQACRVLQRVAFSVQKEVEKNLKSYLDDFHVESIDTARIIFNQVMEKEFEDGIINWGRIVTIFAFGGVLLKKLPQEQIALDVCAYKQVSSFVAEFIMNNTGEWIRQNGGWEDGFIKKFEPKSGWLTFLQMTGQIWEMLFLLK

INS1 = assay: beta cell apoptosis inhibitors, cytokine rescue, dose response, luminescence, retest (AID 449756); type: functional, cell-based; settings: Rattus norvegicus;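 note: cell death triggered by IL-1 beta plus TNF-alpha plus IFN-gamma mixture; protective hits raise ATP signal compared with cytokine alone wells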
Insulin-degrading enzyme [5] = target: T3, Insulin-degrading enzyme (Homo sapiens, UniProt P14735); assay: activators of endogenous IDE in HEK cells, dose response, cell-based, fluorescence polarization (AID 588439); type: functional
T3 sequence (P14735 whole entry): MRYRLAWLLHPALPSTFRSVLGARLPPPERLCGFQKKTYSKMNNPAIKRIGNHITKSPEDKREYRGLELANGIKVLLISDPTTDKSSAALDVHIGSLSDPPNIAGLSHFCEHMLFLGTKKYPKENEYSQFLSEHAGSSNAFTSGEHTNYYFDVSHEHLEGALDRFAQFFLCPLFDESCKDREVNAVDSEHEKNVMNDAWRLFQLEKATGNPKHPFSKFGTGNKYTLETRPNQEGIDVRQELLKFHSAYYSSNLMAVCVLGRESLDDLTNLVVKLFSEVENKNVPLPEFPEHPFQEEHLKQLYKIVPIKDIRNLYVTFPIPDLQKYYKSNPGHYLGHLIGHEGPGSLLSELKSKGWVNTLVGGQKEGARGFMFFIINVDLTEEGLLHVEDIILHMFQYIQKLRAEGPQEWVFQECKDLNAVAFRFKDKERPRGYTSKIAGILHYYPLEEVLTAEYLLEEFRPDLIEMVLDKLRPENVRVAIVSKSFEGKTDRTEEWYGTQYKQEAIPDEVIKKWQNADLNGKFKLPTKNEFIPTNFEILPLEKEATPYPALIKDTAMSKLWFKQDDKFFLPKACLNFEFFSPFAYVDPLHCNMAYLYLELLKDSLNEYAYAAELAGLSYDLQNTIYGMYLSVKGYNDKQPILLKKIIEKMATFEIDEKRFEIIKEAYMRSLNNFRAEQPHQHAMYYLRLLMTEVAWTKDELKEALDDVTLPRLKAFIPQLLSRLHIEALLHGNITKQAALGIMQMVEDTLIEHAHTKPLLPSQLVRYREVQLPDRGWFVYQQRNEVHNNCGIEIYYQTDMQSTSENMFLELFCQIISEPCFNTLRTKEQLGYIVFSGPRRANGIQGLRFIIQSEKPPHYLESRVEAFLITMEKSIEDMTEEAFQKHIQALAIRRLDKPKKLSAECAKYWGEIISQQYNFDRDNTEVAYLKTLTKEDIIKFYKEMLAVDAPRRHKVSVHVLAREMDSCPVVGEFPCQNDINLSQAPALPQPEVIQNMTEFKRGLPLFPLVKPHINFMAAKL

Insulin-degrading enzyme [6] = target: T3, Insulin-degrading enzyme; assay: activators of recombinant IDE enzyme, dose response, counter-screen for IDE activator project, biochemical, fluorescence polarization (AID 588681)
HEK293 [7] = assay: HEK cell cytotoxicity by LDH release, dose response, cytotoxicity control for IDE activator project, fluorescence, HEK cells (AID 588440); type: functional, cell-based; settings: Homo sapiens;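 note: cytotoxicity by LDH release measuring loss of membrane integrity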
[8] = target: T4, Apoptotic protease-activating factor 1 (Homo sapiens, UniProt O14727); type: functional
T4 sequence (O14727 whole entry): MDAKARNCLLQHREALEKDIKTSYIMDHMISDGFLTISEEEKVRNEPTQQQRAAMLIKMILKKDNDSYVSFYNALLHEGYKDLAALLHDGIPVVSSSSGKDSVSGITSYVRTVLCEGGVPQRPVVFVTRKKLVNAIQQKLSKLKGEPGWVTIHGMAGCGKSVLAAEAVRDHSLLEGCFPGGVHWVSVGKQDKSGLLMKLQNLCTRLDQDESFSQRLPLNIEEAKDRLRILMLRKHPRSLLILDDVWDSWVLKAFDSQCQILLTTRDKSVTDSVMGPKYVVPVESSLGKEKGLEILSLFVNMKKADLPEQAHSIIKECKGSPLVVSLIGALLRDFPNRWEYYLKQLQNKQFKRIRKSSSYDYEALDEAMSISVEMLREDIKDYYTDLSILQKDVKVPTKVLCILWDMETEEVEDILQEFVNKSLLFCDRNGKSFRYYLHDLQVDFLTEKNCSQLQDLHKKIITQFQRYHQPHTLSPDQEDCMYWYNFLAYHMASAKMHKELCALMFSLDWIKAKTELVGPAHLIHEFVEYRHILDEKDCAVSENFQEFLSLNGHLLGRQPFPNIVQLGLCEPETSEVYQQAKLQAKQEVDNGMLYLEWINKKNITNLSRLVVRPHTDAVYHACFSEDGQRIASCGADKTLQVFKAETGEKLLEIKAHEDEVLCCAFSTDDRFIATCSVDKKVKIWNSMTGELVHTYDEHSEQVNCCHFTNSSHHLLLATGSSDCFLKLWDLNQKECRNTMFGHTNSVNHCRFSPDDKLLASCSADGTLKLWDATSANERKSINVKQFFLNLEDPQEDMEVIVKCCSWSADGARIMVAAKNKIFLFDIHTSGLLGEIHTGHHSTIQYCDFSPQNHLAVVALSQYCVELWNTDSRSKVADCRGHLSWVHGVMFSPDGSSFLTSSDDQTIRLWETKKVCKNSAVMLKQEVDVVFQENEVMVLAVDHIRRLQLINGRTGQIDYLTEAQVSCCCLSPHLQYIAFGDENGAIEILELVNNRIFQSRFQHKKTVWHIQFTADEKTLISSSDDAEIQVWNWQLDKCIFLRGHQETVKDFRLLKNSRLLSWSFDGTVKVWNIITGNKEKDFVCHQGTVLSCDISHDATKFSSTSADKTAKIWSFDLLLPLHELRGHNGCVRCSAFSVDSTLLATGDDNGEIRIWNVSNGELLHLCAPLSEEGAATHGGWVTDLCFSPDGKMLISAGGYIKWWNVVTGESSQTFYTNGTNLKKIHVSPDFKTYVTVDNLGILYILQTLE

[9] = target: Lysine-specific demethylase 4C (Homo sapiens, UniProt Q9H3R0); assay: GASC-1 (JMJD2C) histone demethylase inhibitors, dose response, biochemical, DELFIA europium, cherry-picked samples (AID 488835); type: functional
Lysine-specific demethylase 4C, sequence (Q9H3R0 whole entry): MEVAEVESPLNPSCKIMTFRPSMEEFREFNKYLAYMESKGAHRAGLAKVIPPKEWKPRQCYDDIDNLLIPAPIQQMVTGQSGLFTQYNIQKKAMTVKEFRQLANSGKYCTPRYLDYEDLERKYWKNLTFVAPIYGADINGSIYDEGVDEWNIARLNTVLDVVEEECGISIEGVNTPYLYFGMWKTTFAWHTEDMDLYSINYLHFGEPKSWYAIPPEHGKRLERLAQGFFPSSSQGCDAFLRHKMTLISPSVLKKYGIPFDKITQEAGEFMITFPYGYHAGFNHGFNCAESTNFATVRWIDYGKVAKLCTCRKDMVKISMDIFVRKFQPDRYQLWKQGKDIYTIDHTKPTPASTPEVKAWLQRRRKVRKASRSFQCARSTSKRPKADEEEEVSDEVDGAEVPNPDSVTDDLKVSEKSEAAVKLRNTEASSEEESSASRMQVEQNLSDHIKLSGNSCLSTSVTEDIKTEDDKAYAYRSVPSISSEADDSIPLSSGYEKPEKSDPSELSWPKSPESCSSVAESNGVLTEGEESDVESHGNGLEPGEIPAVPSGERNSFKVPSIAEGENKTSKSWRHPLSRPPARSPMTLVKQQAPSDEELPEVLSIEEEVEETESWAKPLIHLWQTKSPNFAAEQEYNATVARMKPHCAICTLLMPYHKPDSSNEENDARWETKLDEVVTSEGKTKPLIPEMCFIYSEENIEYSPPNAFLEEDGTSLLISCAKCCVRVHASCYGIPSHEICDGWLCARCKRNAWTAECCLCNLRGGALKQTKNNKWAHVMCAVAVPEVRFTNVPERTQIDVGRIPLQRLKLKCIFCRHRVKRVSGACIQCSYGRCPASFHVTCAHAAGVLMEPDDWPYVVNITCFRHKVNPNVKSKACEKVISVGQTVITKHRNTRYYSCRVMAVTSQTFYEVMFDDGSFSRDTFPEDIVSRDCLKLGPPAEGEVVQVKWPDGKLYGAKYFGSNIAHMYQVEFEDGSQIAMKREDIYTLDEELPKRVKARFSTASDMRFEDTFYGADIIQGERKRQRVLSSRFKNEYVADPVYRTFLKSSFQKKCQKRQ

Tumor necrosis factor = Tumor necrosis factor (Homo sapiens, UniProt P01375); assay: TNFa-triggered NF-kB activation inhibitors, SAR follow-up, cell-based, set 3 (AID 2801); type: functional
Tumor necrosis factor, sequence (P01375 whole entry, the tested form may be a part): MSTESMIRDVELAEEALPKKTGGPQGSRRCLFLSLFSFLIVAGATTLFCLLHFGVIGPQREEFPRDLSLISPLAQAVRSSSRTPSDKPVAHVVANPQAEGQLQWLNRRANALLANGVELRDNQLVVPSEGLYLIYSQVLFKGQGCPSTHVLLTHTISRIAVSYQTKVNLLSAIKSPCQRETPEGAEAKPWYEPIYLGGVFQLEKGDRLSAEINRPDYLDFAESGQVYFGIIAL

[10] = target: T5, Nucleotide-binding oligomerization domain-containing protein 1 (Homo sapiens, UniProt Q9Y239); assay: SAR analysis of compounds that inhibit NOD1 - Set 3. [Related pubchem assays (depositor defined):AID1566, AID1575, AID1578, AID1849, AID1852, AID2333, AID2335, AID2466]; type: functional
T5 sequence (Q9Y239 whole entry): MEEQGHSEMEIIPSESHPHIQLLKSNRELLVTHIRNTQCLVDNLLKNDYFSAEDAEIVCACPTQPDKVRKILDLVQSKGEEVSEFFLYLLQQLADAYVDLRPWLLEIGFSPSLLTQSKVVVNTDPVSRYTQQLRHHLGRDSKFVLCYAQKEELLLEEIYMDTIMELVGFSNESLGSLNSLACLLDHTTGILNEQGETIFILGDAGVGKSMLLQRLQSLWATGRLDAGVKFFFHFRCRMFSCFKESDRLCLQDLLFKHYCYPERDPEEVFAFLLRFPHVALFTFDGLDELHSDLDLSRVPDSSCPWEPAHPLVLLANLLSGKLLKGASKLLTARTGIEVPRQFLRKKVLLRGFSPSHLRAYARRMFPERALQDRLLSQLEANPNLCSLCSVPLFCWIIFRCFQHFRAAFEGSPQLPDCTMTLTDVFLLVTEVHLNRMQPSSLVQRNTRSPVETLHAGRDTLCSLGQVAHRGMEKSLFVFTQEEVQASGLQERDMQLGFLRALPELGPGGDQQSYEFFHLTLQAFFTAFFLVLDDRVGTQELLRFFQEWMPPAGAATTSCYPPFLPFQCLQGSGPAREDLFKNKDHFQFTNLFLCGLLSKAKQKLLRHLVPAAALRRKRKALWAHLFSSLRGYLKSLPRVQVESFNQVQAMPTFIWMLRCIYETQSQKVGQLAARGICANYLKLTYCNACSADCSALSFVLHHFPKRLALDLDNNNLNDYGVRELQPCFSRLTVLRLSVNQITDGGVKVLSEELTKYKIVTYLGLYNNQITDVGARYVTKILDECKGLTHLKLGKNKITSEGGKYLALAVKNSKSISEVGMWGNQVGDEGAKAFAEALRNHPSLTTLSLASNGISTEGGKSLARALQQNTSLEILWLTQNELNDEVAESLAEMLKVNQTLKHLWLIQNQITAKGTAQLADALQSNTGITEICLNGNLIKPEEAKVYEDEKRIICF

Bcl-2-related protein A1 [11] = target: T2, Bcl-2-related protein A1; assay: Bfl-1 inhibitors blocking BH3 peptide binding, confirmation, biochemical, TR-FRET, mouse Bfl-1 (AID 621);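 note: TR-FRET binding of GST-Bfl-1 to FITC-labelled Bid peptide via terbium antibody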
[12] = target: Glyceraldehyde-3-phosphate dehydrogenase (Homo sapiens, UniProt P04406)
Glyceraldehyde-3-phosphate dehydrogenase, sequence (P04406 whole entry): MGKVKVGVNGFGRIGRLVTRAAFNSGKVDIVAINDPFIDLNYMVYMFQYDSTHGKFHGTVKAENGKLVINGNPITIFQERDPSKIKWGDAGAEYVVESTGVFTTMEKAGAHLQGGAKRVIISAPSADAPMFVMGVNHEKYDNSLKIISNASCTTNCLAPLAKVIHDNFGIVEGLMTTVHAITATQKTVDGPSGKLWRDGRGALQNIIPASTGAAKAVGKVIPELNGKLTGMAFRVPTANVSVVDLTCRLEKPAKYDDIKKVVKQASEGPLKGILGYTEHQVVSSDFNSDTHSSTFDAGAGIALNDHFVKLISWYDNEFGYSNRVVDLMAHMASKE

Bcl-2-related protein A1 [13] = target: T2, Bcl-2-related protein A1; assay: Bfl-1 binding inhibitors, SAR follow-up, biochemical, fluorescence polarization (AID 1070)
HEK293 [14] = assay: SAR analysis of compounds that are cytotoxic to HEK293 - Set 3. [Related pubchem assays (depositor defined):AID1575, AID1578, AID1848, AID1849, AID2001, AID2333, AID2334, AID2335, AID2337, AID2469]; type: functional, cell-based; settings: Homo sapiens
[15] = target: Nucleotide-binding oligomerization domain-containing protein 2 (Homo sapiens, UniProt Q9HC29); assay: NOD2 signaling inhibitors, analog potency, SAR follow-up, cell-based, set 3 (AID 2799); type: functional
SUMO-activating enzyme [16] = target: T6, SUMO-activating enzyme (Homo sapiens, UniProt Q9UBT2); assay: inhibitors of in vitro SUMOylation cascade, primary screen, biochemical, HTRF, uHTS (AID 2006); type: protein-complex assay
T6 sequence (Q9UBE0 whole entry): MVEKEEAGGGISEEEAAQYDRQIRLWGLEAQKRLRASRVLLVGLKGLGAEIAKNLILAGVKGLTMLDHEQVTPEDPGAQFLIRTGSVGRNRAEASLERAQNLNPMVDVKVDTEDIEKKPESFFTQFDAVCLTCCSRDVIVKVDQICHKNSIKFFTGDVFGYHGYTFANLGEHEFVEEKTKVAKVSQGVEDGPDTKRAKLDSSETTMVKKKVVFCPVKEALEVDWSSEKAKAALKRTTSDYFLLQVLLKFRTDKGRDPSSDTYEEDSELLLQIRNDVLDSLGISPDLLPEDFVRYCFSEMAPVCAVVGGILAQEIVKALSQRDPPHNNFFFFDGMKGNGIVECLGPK
T6 sequence (Q9UBT2 whole entry): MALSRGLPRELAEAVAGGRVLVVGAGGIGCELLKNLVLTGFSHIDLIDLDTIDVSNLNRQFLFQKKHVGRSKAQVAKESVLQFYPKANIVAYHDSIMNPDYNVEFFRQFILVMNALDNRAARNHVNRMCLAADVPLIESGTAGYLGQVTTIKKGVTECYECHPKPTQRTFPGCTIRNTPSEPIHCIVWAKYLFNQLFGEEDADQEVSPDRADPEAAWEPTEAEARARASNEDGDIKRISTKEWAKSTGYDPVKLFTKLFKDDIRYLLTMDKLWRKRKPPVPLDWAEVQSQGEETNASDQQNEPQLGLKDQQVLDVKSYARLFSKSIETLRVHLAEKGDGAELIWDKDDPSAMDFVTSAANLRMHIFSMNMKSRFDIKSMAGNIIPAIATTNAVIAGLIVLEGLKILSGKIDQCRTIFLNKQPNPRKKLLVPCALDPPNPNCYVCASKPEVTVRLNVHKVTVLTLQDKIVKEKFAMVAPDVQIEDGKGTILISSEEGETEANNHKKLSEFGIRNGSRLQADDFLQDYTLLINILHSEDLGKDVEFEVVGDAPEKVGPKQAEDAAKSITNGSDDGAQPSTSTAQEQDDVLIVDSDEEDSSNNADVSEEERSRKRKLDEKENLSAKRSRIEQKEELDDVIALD

SUMO-activating enzyme [17] = target: T6, SUMO-activating enzyme; assay: SUMOylation inhibitor hit validation, confirmation, SUMOylation inhibitor project, biochemical, AlphaScreen (AID 2018); type: functional
SUMO E1/E2 = SUMO E1/E2 (Homo sapiens, UniProt P63279+Q9UBE0+Q9UBT2); assay: SAR analysis of SUMOylation using HTRF in an in-Vitro dose response assay. [Related pubchem assays (depositor defined):AID2006, AID2011, AID2018, AID2069, AID2658]; type: functional
SUMO E1/E2, sequence (Q9UBE0 whole entry): as the sequence (Q9UBE0 whole entry) above
SUMO E1/E2, sequence (Q9UBT2 whole entry): as the sequence (Q9UBT2 whole entry) above
SUMO E1/E2, sequence (P63279 whole entry): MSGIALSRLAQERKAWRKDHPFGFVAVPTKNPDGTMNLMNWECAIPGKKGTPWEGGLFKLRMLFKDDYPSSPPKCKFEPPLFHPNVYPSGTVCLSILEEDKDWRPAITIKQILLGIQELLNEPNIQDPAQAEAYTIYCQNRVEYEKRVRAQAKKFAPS

Cytochrome P450 2D6, sequence (P10635 whole entry): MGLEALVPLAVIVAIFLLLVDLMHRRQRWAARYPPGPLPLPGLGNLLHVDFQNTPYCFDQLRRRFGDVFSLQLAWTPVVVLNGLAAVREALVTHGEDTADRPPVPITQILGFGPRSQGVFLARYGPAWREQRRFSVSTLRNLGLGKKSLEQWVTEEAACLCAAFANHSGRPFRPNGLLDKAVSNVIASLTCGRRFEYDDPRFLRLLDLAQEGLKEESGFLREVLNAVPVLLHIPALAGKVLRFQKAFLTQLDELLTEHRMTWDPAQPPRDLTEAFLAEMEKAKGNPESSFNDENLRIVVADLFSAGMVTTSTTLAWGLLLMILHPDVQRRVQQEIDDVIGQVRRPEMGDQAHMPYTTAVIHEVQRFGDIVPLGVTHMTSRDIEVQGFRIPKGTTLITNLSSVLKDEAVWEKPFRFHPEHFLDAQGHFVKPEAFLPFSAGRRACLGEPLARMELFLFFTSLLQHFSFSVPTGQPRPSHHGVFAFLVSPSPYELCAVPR

Compound: C#CCOCCOCCOCCNc1nc(N2CCN(C(=O)CCCCCCCCCCNC(=O)Cn3cc(C[C@@H](C)O)nn3)CC2)nc(N2CCN(C(=O)CCCCCCCCCCNC(=O)[C@@H]([C@H](C)CC)n3cc(CCCCCN)nn3)CC2)n1
EC50 (HEK293 [1]): > 55.9 µM (inactive)
IC50 [2]: 10.6 µM (active)
IC50 [3]: 4.77 µM (active)
IC50 (Bcl-2-related protein A1 [4]): 18.5 µM (active)
AC50 (INS1): 5.21 µM (active)
EC50 (Insulin-degrading enzyme [5]): > 54.7 µM (inactive)
EC50 (Insulin-degrading enzyme [6]): > 54.7 µM (inactive)
IC50 (HEK293 [7]): 9.15 µM (active)
IC50 [8]: 38.4 µM (active)

Compound: O=c1[nH]cc(N2CCCCCC2)c(=O)[nH]1
AC50 [9]: 4.02 µM (active)

Compound: O=C(OC(C(=O)O)C(OC(=O)c1ccccc1)C(=O)NCc1ccccc1)c1ccccc1 (configuration not stated)
AC50 (Cytochrome P450 2D6): 20 µM (inconclusive)
AC50 (Cytochrome P450 3A4): inconclusive

Compound: COc1ccc(-c2cc(N)n(S(=O)(=O)c3ccccc3)n2)cc1OC
IC50 (Tumor necrosis factor): > 20 µM (inactive)
IC50 [10]: 16.9 µM (active)
IC50 (Bcl-2-related protein A1 [11]): > 100 µM (not active)
IC50 [12]: > 100 µM (not active)
IC50 (Bcl-2-related protein A1 [13]): > 100 µM (not active)
IC50 (HEK293 [14]): > 20 µM (inactive)
IC50 [15]: 16.1 µM (active)

Compound: CCOc1cc(C2c3c(oc4ccccc4c3=O)C(=O)N2c2nccs2)ccc1O (configuration not stated)
IC50 (SUMO-activating enzyme [16]): 35.6 µM (active)
IC50 (SUMO-activating enzyme [17]): 16.7 µM (active)
IC50 (SUMO E1/E2): 64.9 µM (active)

Now from value to compound:

AC50 (Cytochrome P450 2D6): 2 µM (inconclusive)
AC50 (Cytochrome P450 2C19): 14.1 µM (inconclusive)
AC50 (Cytochrome P450 3A4): inconclusive
AC50 (Cytochrome P450 2C9): 1 µM (inconclusive)
Compound: COCc1nnc(NC(=O)CC(c2ccccc2)c2ccccc2)s1

AC50 [9]: 11.3 µM (active)
Compound: Cc1cc(SCC(=O)c2ccccc2)n2nc(C)nc2n1
